The results in this text go back to patent publication US10725042B2, “Methods of diagnosing and treating cancer” (Case Western Reserve University, priority 2012, dated 2020).

The test system of experiment [1] is DLD1 UDG+/+ cells. Description: Colony survival (clonogenic) assay, UDG+/+ cells. Type of experiment: cell-based. The following applies: Homo sapiens, DLD-1, interpolated from dose-response survival curves, read-out: IC50 value for pemetrexed.
The subject of experiment [2] is H460 cells. Description: Clonogenic survival assay, H460 cells. The following applies: Homo sapiens, NCI-H460, read-out: IC50 values for pemetrexed. Format: cell-based. The protocol:
Tumor cells (500-2000/dish) were plated and treated with pemetrexed (0-400 nM), 5-fluorouracil (0-20 μM), temozolomide (0-1500 μM), or cisplatin (0-40 μM). After 7 days, surviving colonies were stained with methylene blue for 30 min at room temperature and the colonies containing more than 50 cells were counted to generate survival curves.

The subject of experiment [3] is A549 siUNG cells. The experiment in a line: Colony survival assay, A549 siUNG cells. Type of experiment: cell-based, human. The protocol: (§1) For cells in suspension, colony survival was determined by crystal violet staining of colonies formed after 10-day exposure of 5×10^3 cells to pemetrexed in soft agar. For adherent cells, colony survival was determined by methylene blue staining of colonies formed after 10-day exposure of 100 cells to pemetrexed in 6-well culture dishes. Only colonies containing ≥50 cells were counted. Data points represent percent of colonies relative to untreated control averaged over 3 experiments.
UNG directed shRNA and siRNA plasmids were purchased from Origene. Transfection was carried out according to manufacturer specifications. Stably transfected clones (shRNA) were selected with puromycin with subsequent expansion of a well-isolated colony of cells.

Experiment [4] has as its system H1975 66 shUNG tumors. The experiment in a line: H1975 66 shUNG xenografts in NOD-SCID mice. Format: in vivo. Here is the method: Tumor cells in early passage (5×10^6) were injected into bilateral flanks of female NODSCID mice (6 weeks old). When tumor volumes reached 100 mm3, mice were divided into control (n=4) and treatment (n=6) groups. Mice bearing tumors were treated with pemetrexed (150 mg/kg) or 100 μl sterile PBS (control) by daily intraperitoneal injection (IP) for 5 consecutive days. Tumor measurements were taken every 2 days and response was quantified by tumor volume.

In experiment [5] the test system is H1975 shUNG cells. The experiment in a line: PCNA dissociation by bi-parametric flow cytometry, H1975 shUNG cells. The following applies: 25 nM pemetrexed. Type of experiment: cell-based, human. The protocol: Propidium iodine (PI) staining of methanol fixed cells was for cell cycle determinations. Where indicated, FITC labeled PCNA antibody (PCNA-FITC, Abcam) was added for PCNA detection. Uni-parameter (PI-only) and dual-parameter (PI+PCNA-FITC) analysis was performed on a Coulter flow cytometer (EPICS-XL-MCL). Cell cycle histograms (PI) and PCNA dot plots (PCNA-FITC) were de-convoluted from ≥20,000 events using FlowJo software.
Prolonged S-phase arrest is known to result in DNA DSB formation due to the collapse of stalled replication forks. We evaluated the stability of the DNA replication fork in pemetrexed treated lung cancer cells with native and reduced levels of UNG protein. Nucleotide incorporation experiments using CldU and IdU indicate decreased postpemetrexed treatment nucleotide incorporation (data not shown). […] Using bi-parametric flow cytometry we measured the dissociation of the replication fork processivity factor, PCNA at the single cell level in H1975 cells expressing UNG directed shRNA. Similar assays have been utilized to detect replication fork disassembly following etoposide and hydroxyurea exposure. PCNA dissociation was determined by the percentage of cells in S phase having low PCNA (red box, FIG. 11d). […] As a complimentary experiment, we examined the expression of chromatin-bound PCNA after pemetrexed treatment by western blot of chromatin cellular extracts.
In general terms: Flow cytometry measures light scatter and fluorescence of single cells or particles in a stream.

Experiment [6] relates to H1299/PR-2 cells. The experiment in a line: Colony survival assay, H1299/PR-2 pemetrexed-resistant subline. Format: cell-based, human. The following applies: PR-2 vs H1299 parental. The protocol: as §1
H1299 cells were exposed to step-wise increasing concentrations of pemetrexed over a period of 4 months. UNG expression was monitored in the bulk population at 2, 8, 12 and 16 weeks prior to administration of the induction dosage and at 24 weeks in a population of bulk chronically exposed cells that had been without pemetrexed for 8 weeks. H1299 cells capable of growth in 50 nM pemetrexed selection pressure were subcloned by limiting dilution in 96 well plates. Independent sublines were designated H1299/PR-1 and H1299/PR-2.

Experiment [7] deals with uracil in DNA of UDG−/− cells. The experiment in a line: Uracil in DNA by HPLC/MS/MS, UDG−/− cells. Type of experiment: cell-based, human. Here is the method:
UDG^−/− and UDG^+/+ cells were exposed to pemetrexed (10 μM) or 5-fluorouracil (10 μM) for 6, 24, 48 and 72 hrs. At indicated time points, cells were harvested and genomic DNA was extracted by phenol/chloroform. Forty μg of DNA were incubated with 10 U of purified UDG (New England Biolabs) in 60 μL of reaction buffer at 37° C. for 2 hrs. The reaction products were dried at 35° C. in a Turbovap under a stream of nitrogen and reconstituted in 150 μL 90% acetonitrile. The analyte was retained by an Atlantis Hilis Silica analytical column (2.1×100 mm, 3.5 μM) and eluted isocratically by a mixture of 90% acetonitrile and 10% 2.0 mM ammonium formate at a flow rate of 0.2 ml/min. The detection was done by an API 3200 MS/MS mass spectrometer.

The subject of experiment [8] is UNG expression in H460 cells. The experiment in a line: UNG protein and transcript expression after acute pemetrexed exposure, H460. Format: cell-based, human. The following applies: acute pemetrexed exposure 0-200 nM. The protocol: Protein extracts (25 μg) were resolved by SDS-PAGE and transferred to PVDF membrane (Millipore). Non-specific binding sites were blocked in 5% milk in PBST (1×PBS+0.1% Tween-20). Incubation with primary antibody at 4° C. in 5% BSA/PBS was followed by incubation with HRP-conjugated secondary antibody in 2.5% milk in PBST. Proteins were visualized with ECL reagent (Amersham Corp). Chromatinbound proteins were extracted from formaldehyde (1%) cross-linked cells using Pierce Chromatin Prep Module (Thermo Pierce). Antibody sources: UNG-23936 (39 kDa band, nuclear UNG) and PCNA (Abcam); Tubulin (Calbiochem); γH2AX and Histone-H3 (Millipore); Cleaved PARP (Cell Signaling); and p-chk1, chk1, cdc2, and p-cdc2 (Santa Cruz).
Lung cancer cDNA microarray was purchased from Origene. For cell lines, total RNA was extracted from cells using RNAqueous-4PCR kit (Ambion, Austin, Tex.). Random hexamers (Invitrogen) were used to PCR amplify cDNA from 1 μg of RNA extract. TaqMAN MGB probes (FAMTM dye labeled, Applied Biosystems) for nuclear UNG (UNG2), SMUG1, MBD4, TDG, TYMS and βPol amplified cDNA using 40 cycles of PCR in an ABI 7500 Fast Real-Time PCR System (Applied Biosystems, Foster City, Calif.). Target quantification was achieved after normalization to β-actin amplification as an endogenous control and is presented as relative quantification (RQ) values or log-mean RQ values.

As to `Nc1nc2[nH]cc(CCc3ccc(C(=O)N[C@@H](CCC(=O)O)C(=O)O)cc3)c2c(=O)[nH]1` [pemetrexed], the IC50 was found to be 0.21 µM in experiment [1]; 0.11 µM in experiment [2]; 0.0605 µM in experiment [3] (Homo sapiens, A549 siUNG, colony survival, read-out: pemetrexed IC50). Also, the “sensitivity of A549 siRNA cells compared to parental cells” value in experiment [3] (A549 siUNG vs parental) amounted to 7 fold. Further, the “tumors smaller than untreated controls” value in experiment [4] (H1975 66 shUNG tumors, day 20, pemetrexed 150 mg/kg IP x5) turned out to be 55.6%. Also, in experiment [4] (H1975 shUNG tumors, pemetrexed 150 mg/kg IP, 5 daily injections), the tumor quadrupling time turned out to be 13.67 ± 0.28 days. Also, the results for the “cells in S phase having low PCNA” value in experiment [5] (6 hours) and in experiment [5] (24 hours) were 3.88±0.93% and 7.81±1.19%, respectively. For the same compound, in experiment [6], the “relative resistance to pemetrexed compared to parental cells” value came out at 71 fold. Also, in experiment [7] (UDG−/− cells, drug 10 μM, 6-72 hr), the “uracil detected in DNA” value is recorded as “significant amount of uracil”. Moreover, the “uracil accumulation compared to UNG+/+ controls” value in experiment [7] (UNG−/− human cancer cells exposed to pemetrexed) is reported as “up to 40 fold”. Besides, in experiment [8], the “UNG protein and transcript expression” value was “time- and dosedependent induction”.

The term IC50 denotes the midpoint of a concentration-inhibition curve.
